“Also recorded” adds a separate entry of the source. No end group written: not given here.
Tests used:
[1] = tested on: HaCaT cells; experiment: Intracellular Ca2+ mobilization (FLIPR) in HaCaT cells; assay type: cell-based; settings: for Intracellular calcium mobilization (in words): SLIGRL 4-40 μM, LIGR and scrambled peptide at concentrations as high as 800 μM
Description: HaCaT cells were seeded in a black-wall 96-well plate at about 20,000 cells/100 μl/well and grown overnight in culture medium prior to the experiment. On the day of the experiment, cells were loaded with 100 μl of Calcium Plus assay reagent component A (FLEXstation calcium Plus Assay Kit, Molecular Devices, Sunnyvale, Calif.) prepared in Hanks' Balanced Salt Solution (HBSS, Mediatech, Inc., Herndon, Va.) for 30 minutes according to the manufacturer's protocol. After loading the cells, SLIGRL, LIGR and ISSLRG (at 5× concentration in 50 μl) were added to all wells (final volume 250 μl/well), and intracellular Ca^2+ levels were subsequently assayed using the FLIPR system (Molecular Devices, Sunnyvale, Calif.) to simultaneously monitor fluorescence in all wells (Wavelength−excitation=488 nm, Wavelength−emission=510 nm) according to the manufacture's protocol. The fluorescence intensity was captured every 3 seconds for the first 3 minutes after the addition of the peptides. The results of this study are shown in Table 6, in fluorescence units.

[2] = tested on: Human primary neonatal keratinocytes; experiment: Secretion of inflammatory mediators by primary keratinocytes (ELISA / Beadlyte); assay type: cell-based; settings: 50 μM, 24 hours; for Fold change in the secretion of inflammatory mediators: IL-6 / Fold change in the secretion of inflammatory mediators: IL-8 / Fold change in the secretion of inflammatory mediators: PGE2 / Fold change in the secretion of inflammatory mediators: PGF2α: cell media; for Fold change in the secretion of inflammatory mediators: IL-6 / Fold change in the secretion of inflammatory mediators: IL-8: Beadlyte; for Fold change in the secretion of inflammatory mediators: PGE2 / Fold change in the secretion of inflammatory mediators: PGF2α: ELISA
Description: Human primary neonatal keratinocytes were purchased from Cascade Biologics (Portland, Oreg.). Cells were cultured in Media 154 supplemented with human keratinocytes growth supplement (Cascade Biologics) and were maintained at <80% confluency. Cells were plated at 6×10^4 per well in 24 well plate and allowed to attach to the well overnight with 5% CO2. Cells were then treated with LIGR (50 μM), SLIGRL (50 μM), the control, scrambled peptide ISLLRG (SEQ.ID.NO.18) (50 μM) or left untreated. Each treatment was done in triplicates. 24 hours later, cell media were collected and examined for the expression and secretion of the inflammatory mediators PGE2, PGF2α, IL-8 and IL-6. PGE2 and PGF2α, using ELISA kits (Cayman Chemicals, Ann Arbor, Mich.) according to manufacturer's instructions. IL-8 and IL-6 levels were detected using Beadlyte Human Multi-cytokine Detection System (Upstate Cell Signaling Solutions, Lake Placid, N.Y.) according to manufacturer's instructions. The experiment was repeated 4 times with different lots of primary keratinocytes.

[3] = tested on: Cyclooxygenase-2 (COX-2); experiment: COX-2 expression (RT-PCR) in skin of topically treated mice; assay type: in vivo, SKH1 hairless mice; settings: for COX-2:GAPDH: 100 μM in 70:30 ethanol:propylene glycol, once daily for 2 weeks (M-F), skin RT-PCR
Description: SKH1 hairless mice, were purchased from Charles River (Kingston, N.Y.), and were housed in appropriately sized cages in an environmentally controlled room with a 12-hour light—12-hour dark photoperiod and supplied with food and water ad libitum. Mice were either untreated, or treated with LIGR or SLIGRL (From California Research Peptide Research Inc. Napa, Calif.), at 100 μM, in 70:30 ethanol: propylene glycol vehicle, once daily for 2 weeks (M-F, no treatment on weekends). Following ten days of treatment, mice were sacrificed and skin samples were processed for RNA extraction and RT-PCR. The treated skins were analyzed for the expression of Cyclooxygenase-2 (COX-2), a known inflammatory mediator. Total RNA (25 ng) from each sample was subjected to one step RT-PCR reaction using OneStep RT-PCR Kit (QIAGEN®, Valencia, Calif.) according to manufacturer's instructions. The reverse transcription was carried out for 30 minutes at 50° C. and a hot start of 15 minutes at 95° C. was then included to activate HotStarTaq™ DNA polymerase in the reaction mix. PCR Primers were synthesized by Integrated DNA Technologies (Coralville, Iowa). Each RT-PCR reaction contained 30 pmol of each primer of COX-2 or 10 pmol of each primer of GAPDH. Each PCR cycle consisted of denaturing for 50 seconds at 94° C., annealing for 1 minute at 58° C., elongation for 1 minute at 72° C. The PCR products were resolved by electrophoresis in 1% agarose gel and stained with ethidium bromide. Kodak Gel logic 100 imaging system was used to take gel pictures and analyze product band density.
The results of this study are shown in Table 5, as expressed in the ratio of COX-2 expression to the expression of the housekeeping gene GAPDH. […] This in vivo study further supports that LIGR is not a classic PAR-2 activator, and is not inducing pro-inflammatory mediators under physiological conditions.

[4] = tested on: Mucin 1 (MUC1); experiment: MUC1 gene expression (RT-PCR) in human corneal epithelial equivalents; assay type: cell-based; settings: 200 μM; for Fold Change (MUC1:GAPDH): treatment refreshed every day, harvested end of 6th day, band density normalized against GAPDH
Description: Human corneal equivalents were purchased from SkinEthic Laboratories (Nice, France). Equivalents were allowed to equilibrate in SkinEthic growth medium overnight at 5% CO2, and were then treated with SLIGRL (SEQ.ID.NO.17) (200 μM), LIGR (SEQ.ID.NO.1) (200 μM) or Phosphate buffered saline (PBS) as a control. Treatment was refreshed everyday. At the end of the 6th day, equivalent samples were harvested. Total RNA was extracted from the equivalents using RNAqueous™ kit (Ambion, Austin, Tex.) according to manufacture's instructions. RNA samples were then treated with DNA-free kit (Ambion, Austin Tex.). 25 nanograms of total RNA from each sample were amplified using OneStep RT-PCR kit (Qiagen, Valencia, Calif.) according to the manufacture's instructions. PCR Primers were synthesized by Integrated DNA Technologies (Coralville, Iowa). Each RT-PCR reaction contained 30 pmol of each primer of MUC1 or 10 pmol of each primer of glyceraldehyde-3-phosphate dehydrogenase (GAPDH). Each PCR cycle consisted of denaturing for 50 seconds at 94° C., annealing for 1 minutes at 58° C., elongation for 1 minute at 72° C. The PCR products were resolved by electrophoresis in 1% agarose gel and stained with ethidium bromide. Kodak Gel logic 100 imaging system was used to take gel pictures and analyze product band density.
All sample densities were normalized against GAPDH.

[5] = molecular target: T1, PAR-2 (Rattus norvegicus, UniProt Q63645); settings: rats; Nishikawa H et al, J Pharmacol Exp Ther. 2005; cited from earlier work
T1 construct: host or cells: rats in vivo (endogenous receptor)
T1 sequence (Q63645 26-397): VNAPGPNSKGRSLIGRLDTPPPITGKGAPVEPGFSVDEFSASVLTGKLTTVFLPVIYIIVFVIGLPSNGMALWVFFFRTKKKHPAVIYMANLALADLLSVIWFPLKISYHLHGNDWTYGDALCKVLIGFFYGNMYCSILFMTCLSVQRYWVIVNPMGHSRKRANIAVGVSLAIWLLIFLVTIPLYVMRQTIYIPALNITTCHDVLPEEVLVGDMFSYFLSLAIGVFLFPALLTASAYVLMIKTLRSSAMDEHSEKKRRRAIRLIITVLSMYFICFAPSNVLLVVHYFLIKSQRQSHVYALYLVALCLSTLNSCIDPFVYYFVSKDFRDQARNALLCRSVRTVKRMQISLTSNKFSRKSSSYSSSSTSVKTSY

| Substance | Fluorescence intensity ([1]; 40 μM peptide) [fluorescence units] | Fluorescence intensity ([1]; 400 μM peptide) [fluorescence units] | Intracellular calcium mobilization (in words) [1] | Induction of inflammatory mediators (in words) [2] | Fold change in the secretion of inflammatory mediators: IL-6 [2] | Fold change in the secretion of inflammatory mediators: IL-8 [2] | Fold change in the secretion of inflammatory mediators: PGE2 [2] | Fold change in the secretion of inflammatory mediators: PGF2α [2] | Fluorescence intensity ([1]; 200 μM peptide) [fluorescence units] | Fluorescence intensity ([1]; 800 μM peptide) [fluorescence units] | COX-2:GAPDH [3] | Fold Change (MUC1:GAPDH) [4] | Induction of expression of the MUC1 gene (in words) ([4]; corneal epithelial equivalents) | Fluorescence intensity ([1]; 4 μM peptide) [fluorescence units] | Fluorescence intensity ([1]; 8 μM peptide) [fluorescence units] | Fluorescence intensity ([1]; 20 μM peptide) [fluorescence units] | Increase in the expression and secretion of several inflammatory mediators [2] | COX-2 expression in vivo (in words) ([3]; 100 μM topical, mouse skin) | Tear secretion (in words) [5] |
| --- | --- | --- | --- | --- | --- | --- | --- | --- | --- | --- | --- | --- | --- | --- | --- | --- | --- | --- | --- |
| ISLLRG (ISSLRG; SYTHETIC PEPTIDE) [the control, scrambled peptide] | 535.54 | 744.95 | do not induce intracellular calcium mobilization | did not induce these inflammatory mediators | 1.1 | 1.0 | 0.8 | 1.0 |  |  |  |  |  |  |  |  |  |  |  |
| H2-Leu-Ile-Gly-Arg-NH2 (H-LIGR-NH2) | 628.27 |  | does not induce calcium mobilization; also recorded: do not induce intracellular calcium mobilization | does not induce the secretion of inflammatory mediators; also recorded: did not induce these inflammatory mediators | 1.2 | 1.0 | 0.8 | 0.9 | 424.315 | 556.105 | 0.275 | 2.1 | induces the expression of the mucin1 gene; also recorded: induced the expression of the MUC1 gene |  |  |  |  |  |  |
| SLIGRL-NH2 | 2842.92 |  | dose dependent increase |  | 2.7 | 3.0 | 2.3 | 1.5 |  |  | 1.168 | 0.7 |  | 1386.9 | 1904.015 | 2003.095 | 1.5-3 times | increased | induce Tear Secretion |

From patent US7381707B2, “Treatment of dry eye” (Johnson & Johnson Consumer Companies, Inc., priority 2005, dated 2008)
